{"source": "paper PMC9851200", "about": "“Multiparameter phenotypic screening for endogenous TFEB and TFE3 translocation identifies novel chemical series modulating lysosome function” (Autophagy, 2022)", "origin": "cited, not measured here", "set-up_in_all_cases": "method as in original PKIS2 published data", "key": {"[1]": {"target": "T1, kinases (KINOMEscan panel) (Homo sapiens, UniProt P42680)", "T1 sequence (P42680 1-631)": "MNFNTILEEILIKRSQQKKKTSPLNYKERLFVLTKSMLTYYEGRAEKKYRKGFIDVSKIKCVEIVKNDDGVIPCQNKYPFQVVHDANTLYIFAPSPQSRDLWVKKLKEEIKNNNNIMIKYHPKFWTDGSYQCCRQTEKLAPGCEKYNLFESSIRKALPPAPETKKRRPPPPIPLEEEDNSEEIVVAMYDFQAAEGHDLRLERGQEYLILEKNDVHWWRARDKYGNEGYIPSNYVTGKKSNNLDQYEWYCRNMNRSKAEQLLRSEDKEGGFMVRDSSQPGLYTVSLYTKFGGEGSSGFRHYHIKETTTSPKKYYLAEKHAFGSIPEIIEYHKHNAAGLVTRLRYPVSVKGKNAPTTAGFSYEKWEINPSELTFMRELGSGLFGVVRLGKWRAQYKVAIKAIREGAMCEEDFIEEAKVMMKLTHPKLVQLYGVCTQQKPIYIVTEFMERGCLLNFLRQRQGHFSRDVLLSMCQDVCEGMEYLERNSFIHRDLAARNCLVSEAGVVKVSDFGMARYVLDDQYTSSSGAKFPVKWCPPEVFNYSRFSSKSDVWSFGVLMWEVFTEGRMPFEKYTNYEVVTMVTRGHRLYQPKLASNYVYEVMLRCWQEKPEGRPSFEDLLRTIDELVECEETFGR", "conditions": "kinase TEC; Published KINOMEscan; ref original PKIS2 published data; cited from earlier work"}, "[2]": {"target": "kinases (KINOMEscan panel) (Homo sapiens, UniProt P07949)", "sequence (P07949 29-1114)": "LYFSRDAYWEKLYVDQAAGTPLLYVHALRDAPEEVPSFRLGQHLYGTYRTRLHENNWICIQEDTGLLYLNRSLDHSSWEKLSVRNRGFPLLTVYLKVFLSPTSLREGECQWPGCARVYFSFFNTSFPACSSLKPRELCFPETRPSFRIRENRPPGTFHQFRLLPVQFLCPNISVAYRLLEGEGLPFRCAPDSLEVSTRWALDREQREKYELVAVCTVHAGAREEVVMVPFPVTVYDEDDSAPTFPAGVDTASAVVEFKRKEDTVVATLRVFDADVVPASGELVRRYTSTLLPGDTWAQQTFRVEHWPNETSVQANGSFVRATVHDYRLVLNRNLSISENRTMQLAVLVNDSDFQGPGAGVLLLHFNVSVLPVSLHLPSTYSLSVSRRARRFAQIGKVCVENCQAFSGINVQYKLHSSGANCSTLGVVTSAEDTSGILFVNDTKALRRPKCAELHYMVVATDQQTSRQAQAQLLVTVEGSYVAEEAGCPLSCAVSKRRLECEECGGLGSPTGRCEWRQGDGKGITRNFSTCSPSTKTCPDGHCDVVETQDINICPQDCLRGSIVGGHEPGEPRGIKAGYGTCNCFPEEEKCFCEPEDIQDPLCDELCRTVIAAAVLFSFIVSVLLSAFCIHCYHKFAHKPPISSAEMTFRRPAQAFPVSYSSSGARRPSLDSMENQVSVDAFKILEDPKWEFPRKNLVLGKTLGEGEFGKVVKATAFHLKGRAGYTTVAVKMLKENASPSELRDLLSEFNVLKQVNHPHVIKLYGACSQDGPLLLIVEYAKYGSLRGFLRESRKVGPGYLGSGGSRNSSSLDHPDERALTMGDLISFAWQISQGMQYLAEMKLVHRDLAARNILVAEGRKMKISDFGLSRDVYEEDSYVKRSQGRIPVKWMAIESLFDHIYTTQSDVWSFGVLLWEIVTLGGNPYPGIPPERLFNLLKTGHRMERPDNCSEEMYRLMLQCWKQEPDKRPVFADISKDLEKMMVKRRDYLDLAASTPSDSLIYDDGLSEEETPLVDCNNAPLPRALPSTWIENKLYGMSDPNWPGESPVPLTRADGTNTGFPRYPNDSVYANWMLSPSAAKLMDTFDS", "conditions": "kinase RET; Published KINOMEscan; ref original PKIS2 published data; cited from earlier work"}, "[3]": {"target": "kinases (KINOMEscan panel) (Homo sapiens, UniProt Q8IU85)", "sequence (Q8IU85 whole entry)": "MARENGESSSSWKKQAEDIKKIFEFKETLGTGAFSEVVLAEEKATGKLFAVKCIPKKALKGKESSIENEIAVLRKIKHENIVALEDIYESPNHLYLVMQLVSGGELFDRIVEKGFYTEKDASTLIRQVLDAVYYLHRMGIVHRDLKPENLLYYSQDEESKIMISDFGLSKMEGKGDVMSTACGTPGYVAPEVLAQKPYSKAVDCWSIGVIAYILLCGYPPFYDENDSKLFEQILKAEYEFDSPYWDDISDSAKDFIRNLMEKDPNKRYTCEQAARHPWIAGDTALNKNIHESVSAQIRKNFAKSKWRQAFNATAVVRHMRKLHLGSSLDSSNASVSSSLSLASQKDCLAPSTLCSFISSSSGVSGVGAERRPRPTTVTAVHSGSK", "conditions": "kinase CAMK1D; Published KINOMEscan; ref original PKIS2 published data; cited from earlier work"}, "[4]": {"target": "T2, kinases (KINOMEscan panel) (Homo sapiens, UniProt P78356)", "T2 sequence (P78356 1-416)": "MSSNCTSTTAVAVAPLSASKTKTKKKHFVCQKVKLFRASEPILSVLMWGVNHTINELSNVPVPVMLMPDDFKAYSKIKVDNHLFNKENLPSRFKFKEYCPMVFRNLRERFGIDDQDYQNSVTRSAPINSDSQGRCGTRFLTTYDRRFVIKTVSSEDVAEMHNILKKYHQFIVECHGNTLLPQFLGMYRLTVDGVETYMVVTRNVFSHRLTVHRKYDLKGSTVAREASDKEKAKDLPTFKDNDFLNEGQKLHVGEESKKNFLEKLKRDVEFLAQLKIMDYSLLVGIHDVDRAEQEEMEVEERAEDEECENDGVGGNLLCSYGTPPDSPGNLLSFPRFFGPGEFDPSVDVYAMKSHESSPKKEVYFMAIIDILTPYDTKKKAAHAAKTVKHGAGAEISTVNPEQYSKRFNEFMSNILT", "conditions": "PIP4K2B; Published KINOMEscan; ref original PKIS2 published data; cited from earlier work"}, "[5]": {"target": "T3, kinases (KINOMEscan panel) (Homo sapiens, UniProt P54753)", "T3 sequence (P54753 34-998)": "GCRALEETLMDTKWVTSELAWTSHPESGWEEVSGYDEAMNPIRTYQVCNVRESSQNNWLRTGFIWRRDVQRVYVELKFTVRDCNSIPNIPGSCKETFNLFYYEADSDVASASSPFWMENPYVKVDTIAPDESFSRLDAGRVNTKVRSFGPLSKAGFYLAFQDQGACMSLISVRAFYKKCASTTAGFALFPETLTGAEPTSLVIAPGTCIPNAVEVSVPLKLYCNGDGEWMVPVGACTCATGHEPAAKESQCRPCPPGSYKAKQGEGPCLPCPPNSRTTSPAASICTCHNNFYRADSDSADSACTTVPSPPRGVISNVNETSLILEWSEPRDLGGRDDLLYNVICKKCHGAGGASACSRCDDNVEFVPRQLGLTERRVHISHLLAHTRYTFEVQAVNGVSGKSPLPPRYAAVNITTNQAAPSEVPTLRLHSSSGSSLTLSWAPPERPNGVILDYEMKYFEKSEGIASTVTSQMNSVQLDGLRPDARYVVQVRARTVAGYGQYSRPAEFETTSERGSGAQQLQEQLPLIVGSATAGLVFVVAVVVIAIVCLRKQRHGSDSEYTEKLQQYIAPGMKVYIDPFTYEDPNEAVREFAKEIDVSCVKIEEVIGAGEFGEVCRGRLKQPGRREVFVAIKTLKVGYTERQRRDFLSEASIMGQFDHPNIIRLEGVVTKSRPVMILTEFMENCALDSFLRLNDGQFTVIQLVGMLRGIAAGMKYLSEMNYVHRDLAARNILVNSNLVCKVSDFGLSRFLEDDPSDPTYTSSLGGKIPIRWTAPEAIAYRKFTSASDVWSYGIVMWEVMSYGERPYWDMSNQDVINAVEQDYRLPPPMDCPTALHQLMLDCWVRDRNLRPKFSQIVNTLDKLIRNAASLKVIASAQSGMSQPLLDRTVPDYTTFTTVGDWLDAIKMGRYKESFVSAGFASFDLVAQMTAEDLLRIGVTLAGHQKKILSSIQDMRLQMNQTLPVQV", "conditions": "kinase EPHB3; Published KINOMEscan; ref original PKIS2 published data; cited from earlier work"}, "[6]": {"target": "kinases (KINOMEscan panel) (Homo sapiens, UniProt Q07002)", "sequence (Q07002 whole entry)": "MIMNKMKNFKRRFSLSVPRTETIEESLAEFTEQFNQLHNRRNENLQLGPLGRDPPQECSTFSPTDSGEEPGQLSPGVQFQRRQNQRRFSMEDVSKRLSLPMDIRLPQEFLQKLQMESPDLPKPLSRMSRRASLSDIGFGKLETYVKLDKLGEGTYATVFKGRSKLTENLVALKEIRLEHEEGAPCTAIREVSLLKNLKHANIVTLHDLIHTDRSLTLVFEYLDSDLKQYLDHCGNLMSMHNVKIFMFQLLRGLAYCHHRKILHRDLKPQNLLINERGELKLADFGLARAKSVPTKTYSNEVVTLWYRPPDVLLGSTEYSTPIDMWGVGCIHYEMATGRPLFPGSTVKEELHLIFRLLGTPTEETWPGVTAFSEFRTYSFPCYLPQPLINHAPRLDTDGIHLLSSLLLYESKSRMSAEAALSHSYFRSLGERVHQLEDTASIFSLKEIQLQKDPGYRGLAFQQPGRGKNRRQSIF", "conditions": "kinase CDK18; Published KINOMEscan; ref original PKIS2 published data; cited from earlier work"}, "[7]": {"target": "kinases (KINOMEscan panel) (Homo sapiens, UniProt Q96J92)", "conditions": "WNK4; Published KINOMEscan; ref original PKIS2 published data; cited from earlier work"}, "[8]": {"target": "kinases (KINOMEscan panel) (Homo sapiens, UniProt Q9H422)", "sequence (Q9H422 whole entry)": "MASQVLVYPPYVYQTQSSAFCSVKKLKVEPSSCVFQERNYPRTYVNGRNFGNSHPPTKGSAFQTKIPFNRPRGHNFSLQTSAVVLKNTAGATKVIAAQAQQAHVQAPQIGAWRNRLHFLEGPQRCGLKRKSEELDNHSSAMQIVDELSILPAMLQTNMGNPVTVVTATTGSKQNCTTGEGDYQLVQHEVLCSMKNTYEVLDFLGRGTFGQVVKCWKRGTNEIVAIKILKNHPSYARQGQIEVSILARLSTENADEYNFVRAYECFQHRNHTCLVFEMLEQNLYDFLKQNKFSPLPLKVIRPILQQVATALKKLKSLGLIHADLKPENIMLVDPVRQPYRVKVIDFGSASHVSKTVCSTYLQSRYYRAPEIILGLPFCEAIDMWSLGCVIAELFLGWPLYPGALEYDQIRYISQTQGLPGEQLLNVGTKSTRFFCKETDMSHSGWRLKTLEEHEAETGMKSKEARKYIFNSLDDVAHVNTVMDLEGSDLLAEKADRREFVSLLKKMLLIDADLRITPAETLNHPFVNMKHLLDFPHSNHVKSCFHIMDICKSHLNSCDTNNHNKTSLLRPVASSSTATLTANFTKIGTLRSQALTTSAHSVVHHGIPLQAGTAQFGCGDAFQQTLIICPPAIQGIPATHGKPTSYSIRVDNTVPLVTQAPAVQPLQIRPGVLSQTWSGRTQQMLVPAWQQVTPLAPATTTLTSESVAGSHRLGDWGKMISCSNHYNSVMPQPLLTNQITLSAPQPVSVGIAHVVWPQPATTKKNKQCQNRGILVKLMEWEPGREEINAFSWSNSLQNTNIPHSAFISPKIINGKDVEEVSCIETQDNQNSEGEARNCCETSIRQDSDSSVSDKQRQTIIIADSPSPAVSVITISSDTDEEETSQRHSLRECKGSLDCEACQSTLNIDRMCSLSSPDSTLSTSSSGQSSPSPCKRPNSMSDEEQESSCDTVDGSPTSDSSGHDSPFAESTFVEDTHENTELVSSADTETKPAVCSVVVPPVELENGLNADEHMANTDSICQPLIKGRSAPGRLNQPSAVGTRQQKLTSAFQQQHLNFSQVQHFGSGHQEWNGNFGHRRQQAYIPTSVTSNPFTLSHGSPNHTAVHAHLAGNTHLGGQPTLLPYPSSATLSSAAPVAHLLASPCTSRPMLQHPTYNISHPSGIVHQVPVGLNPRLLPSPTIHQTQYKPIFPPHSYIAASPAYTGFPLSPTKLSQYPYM", "conditions": "kinase HIPK3; Published KINOMEscan; ref original PKIS2 published data; cited from earlier work"}, "[9]": {"target": "kinases (KINOMEscan panel) (Homo sapiens, UniProt P04626)", "sequence (P04626 23-1255)": "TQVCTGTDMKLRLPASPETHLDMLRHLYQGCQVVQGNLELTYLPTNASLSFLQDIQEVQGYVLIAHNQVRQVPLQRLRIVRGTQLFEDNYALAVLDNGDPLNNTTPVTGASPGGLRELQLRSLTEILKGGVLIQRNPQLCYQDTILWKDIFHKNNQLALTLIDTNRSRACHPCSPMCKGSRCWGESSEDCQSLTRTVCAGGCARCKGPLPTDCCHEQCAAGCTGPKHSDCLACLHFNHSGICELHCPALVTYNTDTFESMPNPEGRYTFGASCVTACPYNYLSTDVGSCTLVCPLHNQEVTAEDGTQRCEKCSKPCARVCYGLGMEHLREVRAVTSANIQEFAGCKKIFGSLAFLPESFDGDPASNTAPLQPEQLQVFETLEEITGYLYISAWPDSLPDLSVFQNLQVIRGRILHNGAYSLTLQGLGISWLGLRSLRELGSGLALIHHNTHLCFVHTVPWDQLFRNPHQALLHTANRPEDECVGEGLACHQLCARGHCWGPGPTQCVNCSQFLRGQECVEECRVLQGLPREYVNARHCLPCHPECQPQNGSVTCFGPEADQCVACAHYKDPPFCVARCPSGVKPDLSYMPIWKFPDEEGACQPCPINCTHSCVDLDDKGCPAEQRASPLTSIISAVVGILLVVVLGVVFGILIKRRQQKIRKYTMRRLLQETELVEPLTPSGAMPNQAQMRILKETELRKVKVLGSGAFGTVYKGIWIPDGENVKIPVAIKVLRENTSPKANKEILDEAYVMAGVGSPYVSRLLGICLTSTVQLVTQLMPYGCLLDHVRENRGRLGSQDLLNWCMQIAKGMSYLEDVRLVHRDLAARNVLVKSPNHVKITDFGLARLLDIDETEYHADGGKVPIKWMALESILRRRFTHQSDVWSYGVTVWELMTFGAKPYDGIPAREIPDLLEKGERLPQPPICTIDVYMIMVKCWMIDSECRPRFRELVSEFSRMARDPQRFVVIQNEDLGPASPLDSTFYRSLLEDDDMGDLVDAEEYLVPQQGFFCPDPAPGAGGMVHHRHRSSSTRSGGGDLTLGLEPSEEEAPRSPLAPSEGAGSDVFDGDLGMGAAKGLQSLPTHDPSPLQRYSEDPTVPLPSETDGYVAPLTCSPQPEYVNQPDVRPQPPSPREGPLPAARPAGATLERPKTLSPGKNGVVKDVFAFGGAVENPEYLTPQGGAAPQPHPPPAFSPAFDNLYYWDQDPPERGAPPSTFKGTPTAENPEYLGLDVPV", "conditions": "kinase ERBB2; Published KINOMEscan; ref original PKIS2 published data; cited from earlier work"}}, "data": [{"molecule": "Cc1cccc(-c2nc(Nc3ccncc3)c3ccccc3n2)n1", "note": "[NK215]", "values": [{"measurement": "KINOMEscan TEC", "setting": "[1]", "result": 10}, {"measurement": "KINOMEscan RET", "setting": "[2]", "result": 9}, {"measurement": "KINOMEscan CAMK1D", "setting": "[3]", "result": 3}, {"measurement": "KINOMEscan PIP4K2B", "setting": "[4]", "result": 0}, {"measurement": "KINOMEscan EPHB3", "setting": "[5]", "result": 11}, {"measurement": "KINOMEscan CDK18", "setting": "[6]", "result": 0}, {"measurement": "KINOMEscan WNK4", "setting": "[7]", "result": 0}, {"measurement": "KINOMEscan HIPK3", "setting": "[8]", "result": 0}, {"measurement": "KINOMEscan ERBB2", "setting": "[9]", "result": 7}]}]}
